From patent US11053235B2, “Substituted 1,4-dihydropyrimidines for the treatment of HBV infection or HBV-induced diseases” (Janssen Sciences Ireland Unlimited Company, priority 2018, dated 2021)
Where a name gives a salt, the structure may show the parent alone. Read-outs that look alike come from different tables or passages of the source.

How the values were obtained:
[1] = test system: HBV; test: Anti-viral assay in HepG2.2.15 cells: HBV inhibitory activity (HBV DNA in culture medium by q-PCR); assay type: cell-based; settings: Hepatitis B virus, HepG2.2.15, 144 h
In short: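 HBV DNA released into the medium was measured by q-PCR after 6-day compound exposure of HepG2.2.15 cells (40,000/well, 2% FBS, one mid-course medium change). Eight 3-fold dilutions, highest 10 uM; EC50 derived by curve fitting.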

[2] = Cytotoxicity determination in HepG2.2.15 cells (CCK-8); assay type: cell-based; settings: human, 6 days treatment, CCK-8, highest concentration 100 uM
In short: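 CC50 derived from CCK-8 absorbance (450 nm, 630 nm reference) after 2.5 h incubation at 37 °C. Before that, HepG2.2.15 cells (5,000/well, 2% FBS) received an 8-point, 3-fold compound series topping at 100 uM for 6 days, with one mid-treatment medium change.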

[3] = HepG2.2.15 cells, 6 days treatment, HBV DNA in culture medium by q-PCR, highest concentration 10 uM, read-out: EC50

Structure (SMILES): CCOC(=O)C1=C(C2CCN(c3ncc(C(=O)O)c(C)n3)CC2)NC(c2nccs2)=NC1c1ccc(F)c(F)c1Cl (single isomer, unassigned) [II-73-B, 2-(4-(6-(2-Chloro-3,4-difluorophenyl)-5-(ethoxycarbonyl)-2-(thiazol-2-yl)-3,6-dihydropyrimidin-4-yl)piperidin-1-yl)-4-methylpyrimidine-5-carboxylic Acid]
- EC50 [1, 3]: 0.025 µM
- CC50 at 6 days [2]: 5.92 µM

Structure (SMILES): CCOC(=O)C1=C(C2CCN(c3ncc(C(=O)O)cn3)CC2)NC(c2nccs2)=NC1c1ccc(F)c(F)c1Cl (single isomer, unassigned) [II-74-B, 2-(4-(6-(2-Chloro-3,4-difluorophenyl)-5-(ethoxycarbonyl)-2-(thiazol-2-yl)-3,6-dihydropyrimidin-4-yl)piperidin-1-yl)pyrimidine-5-carboxylic Acid]
- EC50 [1, 3]: 0.0066 µM
- CC50 at 6 days [2]: 9.31 µM

Structure (SMILES): CCOC(=O)C1=C(C2CCN(c3nncs3)CC2)NC(c2nccs2)=NC1c1ccc(F)c(F)c1Cl (single isomer, unassigned) [II-75-X, Ethyl 6-(1-(1,3,4-thiadiazol-2-yl)piperidin-4-yl)-4-(2-chloro-3,4-difluorophenyl)-2-(thiazol-2-yl)-1,4-dihydropyrimidine-5-carboxylate]
- EC50 [1, 3]: 0.03 µM
- CC50 at 6 days [2]: 9.81 µM

Structure (SMILES): CCOC(=O)C1=C(C2CCN(c3cnc(C(=O)O)s3)CC2)NC(c2nccs2)=NC1c1ccc(F)c(F)c1Cl (single isomer, unassigned) [II-76-B, 5-(4-(6-(2-Chloro-3,4-difluorophenyl)-5-(ethoxycarbonyl)-2-(thiazol-2-yl)-3,6-dihydropyrimidin-4-yl)piperidin-1-yl)thiazole-2-carboxylate lithium salt]
- EC50 [1]: 0.09 µM
- CC50 at 6 days [2]: 6.68 µM

Structure (SMILES): CCOC(=O)C1=C(C2CCN(c3nc(COC)c(C(=O)O)s3)CC2)NC(c2nccs2)=NC1c1ccc(F)c(F)c1Cl (single isomer, unassigned) [II-77-B, 2-(4-(6-(2-Chloro-3,4-difluorophenyl)-5-(ethoxycarbonyl)-2-(thiazol-2-yl)-3,6-dihydropyrimidin-4-yl)piperidin-1-yl)-4-(methoxymethyl)thiazole-5-carboxylic Acid]
- EC50 [1, 3]: 0.029 µM
- CC50 at 6 days [2]: 9.74 µM

Structure (SMILES): CCOC(=O)C1=C(C2CCN(c3ncc(C(=O)O)s3)CC2)NC(c2nccs2)=NC1c1ccc(F)c(F)c1Cl (single isomer, unassigned) [II-78-B, 2-(4-(6-(2-Chloro-3,4-difluorophenyl)-5-(ethoxycarbonyl)-2-(thiazol-2-yl)-3,6-dihydropyrimidin-4-yl)piperidin-1-yl)thiazole-5-carboxylic Acid]
- EC50 [1, 3]: < 0.0046 µM
- CC50 at 6 days [2]: 12.1 µM

Structure (SMILES): CCOC(=O)C1=C(C2CCN(c3nc(C(F)(F)F)c(C(=O)O)s3)CC2)NC(c2nccs2)=NC1c1ccc(F)c(F)c1Cl (single isomer, unassigned) [II-79-B, 2-(4-(6-(2-Chloro-3,4-difluorophenyl)-5-(ethoxycarbonyl)-2-(thiazol-2-yl)-3,6-dihydropyrimidin-4-yl)piperidin-1-yl)-4-(trifluoromethyl)thiazole-5-carboxylic Acid]
- EC50 [1, 3]: 0.013 µM
- CC50 at 6 days [2]: 1.14 µM

Structure (SMILES): CCOC(=O)C1=C(C2CCN(c3nc(C(=O)O)cs3)CC2)NC(c2nccs2)=NC1c1ccc(F)c(F)c1Cl (single isomer, unassigned) [II-80-B, 2-(4-(6-(2-Chloro-3,4-difluorophenyl)-5-(ethoxycarbonyl)-2-(thiazol-2-yl)-3,6-dihydropyrimidin-4-yl)piperidin-1-yl)thiazole-4-carboxylic Acid]
- EC50 [1, 3]: 0.045 µM
- CC50 at 6 days [2]: 10.2 µM

Structure (SMILES): COC(=O)C1=C(C2CCN(c3ncc(C)c(C(=O)O)n3)CC2)NC(c2nccs2)=NC1c1ccc(Br)cc1Cl (single isomer, unassigned) [II-81-B, 2-(4-(6-(4-bromo-2-chlorophenyl)-5-(methoxycarbonyl)-2-(thiazol-2-yl)-3,6-dihydropyrimidin-4-yl)piperidin-1-yl)-5-methylpyrimidine-4-carboxylic Acid]
- EC50 [1, 3]: 0.054 µM
- CC50 at 6 days [2]: 12.4 µM

Structure (SMILES): COC(=O)C1=C(C2CCN(c3ncc(C(=O)O)s3)CC2)NC(c2nccs2)=NC1c1ccc(F)c(F)c1Br (single isomer, unassigned) [II-82-B, 2-(4-(6-(2-Bromo-3,4-difluorophenyl)-5-(methoxycarbonyl)-2-(thiazol-2-yl)-3,6-dihydropyrimidin-4-yl)piperidin-1-yl)thiazole-5-carboxylic Acid]
- EC50 [1, 3]: 0.0091 µM
- CC50 at 6 days [2]: 9.48 µM

Structure (SMILES): COC(=O)C1=C(C2CCN(c3ncc(C(=O)O)s3)CC2)NC(c2nccs2)=NC1c1cccc(F)c1Br (single isomer, unassigned) [II-83-B, 2-(4-(6-(2-Bromo-3-fluorophenyl)-5-(methoxycarbonyl)-2-(thiazol-2-yl)-3,6-dihydropyrimidin-4-yl)piperidin-1-yl)thiazole-5-carboxylic Acid]
- EC50 [1, 3]: 0.016 µM
- CC50 at 6 days [2]: 2.84 µM

Structure (SMILES): COC(=O)C1=C(C2CCN(c3ncc(C(=O)O)s3)CC2)NC(c2nccs2)=NC1c1ccc(F)cc1Br (single isomer, unassigned) [II-84-B, 2-(4-(6-(2-Bromo-4-fluorophenyl)-5-(methoxycarbonyl)-2-(thiazol-2-yl)-3,6-dihydropyrimidin-4-yl)piperidin-1-yl)thiazole-5-carboxylic Acid]
- EC50 [1, 3]: 0.0064 µM
- CC50 at 6 days [2]: 14.9 µM

Structure (SMILES): CCOC(=O)C1=C(C2CCN(c3nc(C(=O)O)co3)C2)NC(c2nccs2)=NC1c1ccc(F)c(F)c1Cl (single isomer, unassigned) [II-85-A, 2-(3-(6-(2-chloro-3,4-difluorophenyl)-5-(ethoxycarbonyl)-2-(thiazol-2-yl)-3,6-dihydropyrimidin-4-yl)pyrrolidin-1-yl)oxazole-4-carboxylic Acid]
- EC50 [1, 3]: 0.72 µM
- CC50 at 6 days [2]: 4.49 µM

Structure (SMILES): CCOC(=O)C1=C(C2CN(c3nc(C(=O)O)co3)C2)NC(c2nccs2)=NC1c1ccc(F)c(F)c1Cl (single isomer, unassigned) [II-86-B, 2-(3-(6-(2-Chloro-3,4-difluorophenyl)-5-(ethoxycarbonyl)-2-(thiazol-2-yl)-3,6-dihydropyrimidin-4-yl)azetidin-1-yl)oxazole-4-carboxylic Acid]
- EC50 [1, 3]: 2.87 µM
- CC50 at 6 days [2]: 9.4 µM

Structure (SMILES): COC(=O)C1=C(C2CN(C(=O)c3ccccc3)C2)NC(c2nccs2)=NC1c1ccc(F)cc1Cl (single isomer, unassigned) [II-87-A, Methyl 6-(1-benzoylazetidin-3-yl)-4-(2-chloro-4-fluorophenyl)-2-(thiazol-2-yl)-1,4-dihydropyrimidine-5-carboxylate]
- EC50 [1, 3]: 4.02 µM
- CC50 at 6 days [2]: 9.86 µM

Structure (SMILES): COC(=O)C1=C(C2CN(C(=O)c3cnoc3C)C2)NC(c2nccs2)=NC1c1ccc(F)cc1Cl (single isomer, unassigned) [II-88-B, methyl 4-(2-chloro-4-fluorophenyl)-6-(1-(5-methylisoxazole-4-carbonyl)azetidin-3-yl)-2-(thiazol-2-yl)-1,4-dihydropyrimidine-5-carboxylate]
- EC50 [1, 3]: 2.05 µM
- CC50 at 6 days [2]: 9.96 µM

Structure (SMILES): COC(=O)C1=C(C2CCN(c3cc(C(=O)O)c(C)cn3)CC2)NC(c2nccs2)=NC1c1ccc(F)cc1Cl (single isomer, unassigned) [II-89-B, 2-(4-(6-(2-Chloro-4-fluorophenyl)-5-(methoxycarbonyl)-2-(thiazol-2-yl)-3,6-dihydropyrimidin-4-yl)piperidin-1-yl)-5-methylisonicotinic Acid]
- EC50 [1, 3]: 0.009 µM
- CC50 at 6 days [2]: 20.3 µM
